# Test results: patent US11771662B2, “Analgesic formulation for control of pain in dogs” (Kansas State University Research Foundation, priority 2017, dated 2023)
# Values joined by “and” are separate entries in the source; they are usually repeats but may differ in a detail not shown here. Equal values may be shown once.
# What was measured:
# [1] = test system: dogs undergoing ovariohysterectomy; test: Sedation scores at each time point in ovariohysterectomy clinical trial (Example IV); conditions: 0.5 mg/kg SC q 4 h; Day 3 7:00 AM
# [2] = test system: dogs undergoing ovariohysterectomy; test: Postoperative pain: Glasgow Composite Pain Scale and need for rescue analgesic (Example IV); conditions: 0.5 mg/kg SC q 4 h; total 13
# [3] = Plasma methadone concentrations by liquid chromatography/triple quadrupole mass spectrometry (Example I); conditions: for concentration at 0.333 h / concentration at 0.667 h / concentration at 1 h / concentration at 2 h / concentration at 4 h / concentration at 0 h / concentration at 6 h / concentration at 8 h / concentration at 12 h / concentration at 24 h: dog, in vivo
smiles,measurement,setting,value
CCC(=O)C(CC(C)N(C)C)(c1ccccc1)c1ccccc1 (racemic) [methadone],Sedation Score None (number of dogs),[1],13
same,Sedation Score Profound (number of dogs),[1],0
same,Sedation Score Slight (number of dogs),[1],0
same,"Treatment Outcome: Failure (number of dogs, rescue analgesic needed)",[2],0
same,"Treatment Outcome: Success (number of dogs, no rescue analgesic)",[2],13
same,concentration at 0.333 h,"[3]; 1 mg/kg, Mean plasma methadone concentration, methadone alone 1 mg/kg PO, 0.333 hr, 6 dogs",0.8 ng/mL
same,concentration at 0.667 h,"[3]; 1 mg/kg, Mean plasma methadone concentration, methadone alone 1 mg/kg PO, 0.667 hr, 6 dogs",1.3 ng/mL
same,concentration at 1 h,"[3]; 1 mg/kg, Mean plasma methadone concentration, methadone alone 1 mg/kg PO, 1 hr, 6 dogs",1.2 ng/mL
same,concentration at 2 h,"[3]; 1 mg/kg, Mean plasma methadone concentration, methadone alone 1 mg/kg PO, 2 hr, 6 dogs",0.7 ng/mL
same,concentration at 4 h,"[3]; 1 mg/kg, Mean plasma methadone concentration, methadone alone 1 mg/kg PO, 4 hr, 6 dogs",0.4 ng/mL
same,concentration at 0 h,"[3]; 1 mg/kg, Plasma methadone concentration, individual dogs, methadone alone 1 mg/kg PO, 0 hr, Dog 1-6",< 0.5 ng/mL
same,concentration at 1 h,"[3]; 1 mg/kg, Plasma methadone concentration, individual dogs, methadone alone 1 mg/kg PO, 1 hr, Dog 1-6",1 ng/mL
same,concentration at 4 h,"[3]; 1 mg/kg, Plasma methadone concentration, individual dogs, methadone alone 1 mg/kg PO, 4 hr, Dog 1-6",< 0.5 ng/mL
same,concentration at 6 h,"[3]; 1 mg/kg, Plasma methadone concentration, individual dogs, methadone alone 1 mg/kg PO, 6 hr, Dog 1-6",< 0.5 ng/mL
same,concentration at 8 h,"[3]; 1 mg/kg, Plasma methadone concentration, individual dogs, methadone alone 1 mg/kg PO, 8 hr, Dog 1-6",< 0.5 ng/mL
same,concentration at 12 h,"[3]; 1 mg/kg, Plasma methadone concentration, individual dogs, methadone alone 1 mg/kg PO, 12 hr, Dog 1-6",< 0.5 ng/mL
same,concentration at 24 h,"[3]; 1 mg/kg, Plasma methadone concentration, individual dogs, methadone alone 1 mg/kg PO, 24 hr, Dog 1-6",< 0.5 ng/mL
same,concentration at 0 h,"[3]; Mean plasma methadone concentration, methadone 1 mg/kg PO 24 h after starting fluconazole 2.5 mg/kg PO q 12 h, 0 hr",0 ng/mL
same,concentration at 0.333 h,"[3]; Mean plasma methadone concentration, methadone 1 mg/kg PO 24 h after starting fluconazole 2.5 mg/kg PO q 12 h, 0.333 hr",0.8 ng/mL
same,concentration at 0.667 h,"[3]; Mean plasma methadone concentration, methadone 1 mg/kg PO 24 h after starting fluconazole 2.5 mg/kg PO q 12 h, 0.667 hr",5.2 ng/mL
same,concentration at 1 h,"[3]; Mean plasma methadone concentration, methadone 1 mg/kg PO 24 h after starting fluconazole 2.5 mg/kg PO q 12 h, 1 hr",16 ng/mL
same,concentration at 2 h,"[3]; Mean plasma methadone concentration, methadone 1 mg/kg PO 24 h after starting fluconazole 2.5 mg/kg PO q 12 h, 2 hr",28.4 ng/mL
same,concentration at 4 h,"[3]; Mean plasma methadone concentration, methadone 1 mg/kg PO 24 h after starting fluconazole 2.5 mg/kg PO q 12 h, 4 hr",23.3 ng/mL
same,concentration at 6 h,"[3]; Mean plasma methadone concentration, methadone 1 mg/kg PO 24 h after starting fluconazole 2.5 mg/kg PO q 12 h, 6 hr",19.2 ng/mL
same,concentration at 8 h,"[3]; Mean plasma methadone concentration, methadone 1 mg/kg PO 24 h after starting fluconazole 2.5 mg/kg PO q 12 h, 8 hr",15.9 ng/mL
same,concentration at 12 h,"[3]; Mean plasma methadone concentration, methadone 1 mg/kg PO 24 h after starting fluconazole 2.5 mg/kg PO q 12 h, 12 hr",11.6 ng/mL
same,concentration at 24 h,"[3]; Mean plasma methadone concentration, methadone 1 mg/kg PO 24 h after starting fluconazole 2.5 mg/kg PO q 12 h, 24 hr",5.6 ng/mL
same,concentration at 0 h,"[3]; Mean plasma methadone concentration, methadone 1 mg/kg PO 24 h after starting fluconazole 5 mg/kg PO q 12 h, 0 hr",0 ng/mL
same,concentration at 0.333 h,"[3]; Mean plasma methadone concentration, methadone 1 mg/kg PO 24 h after starting fluconazole 5 mg/kg PO q 12 h, 0.333 hr",14 ng/mL
same,concentration at 0.667 h,"[3]; Mean plasma methadone concentration, methadone 1 mg/kg PO 24 h after starting fluconazole 5 mg/kg PO q 12 h, 0.667 hr",10.3 ng/mL
same,concentration at 1 h,"[3]; Mean plasma methadone concentration, methadone 1 mg/kg PO 24 h after starting fluconazole 5 mg/kg PO q 12 h, 1 hr",24.3 ng/mL
same,concentration at 2 h,"[3]; Mean plasma methadone concentration, methadone 1 mg/kg PO 24 h after starting fluconazole 5 mg/kg PO q 12 h, 2 hr",43.6 ng/mL
same,concentration at 4 h,"[3]; Mean plasma methadone concentration, methadone 1 mg/kg PO 24 h after starting fluconazole 5 mg/kg PO q 12 h, 4 hr",42.5 ng/mL
same,concentration at 6 h,"[3]; Mean plasma methadone concentration, methadone 1 mg/kg PO 24 h after starting fluconazole 5 mg/kg PO q 12 h, 6 hr",33.9 ng/mL
same,concentration at 8 h,"[3]; Mean plasma methadone concentration, methadone 1 mg/kg PO 24 h after starting fluconazole 5 mg/kg PO q 12 h, 8 hr",27.6 ng/mL
same,concentration at 12 h,"[3]; Mean plasma methadone concentration, methadone 1 mg/kg PO 24 h after starting fluconazole 5 mg/kg PO q 12 h, 12 hr",20.2 ng/mL
same,concentration at 24 h,"[3]; Mean plasma methadone concentration, methadone 1 mg/kg PO 24 h after starting fluconazole 5 mg/kg PO q 12 h, 24 hr",8.3 ng/mL
same,concentration at 0 h,"[3]; Mean plasma methadone concentration, methadone 1 mg/kg PO 24 h after starting fluconazole 5 mg/kg PO q 24 h, 0 hr",0 ng/mL
same,concentration at 0.333 h,"[3]; Mean plasma methadone concentration, methadone 1 mg/kg PO 24 h after starting fluconazole 5 mg/kg PO q 24 h, 0.333 hr",5.8 ng/mL
same,concentration at 0.667 h,"[3]; Mean plasma methadone concentration, methadone 1 mg/kg PO 24 h after starting fluconazole 5 mg/kg PO q 24 h, 0.667 hr",22.4 ng/mL
same,concentration at 1 h,"[3]; Mean plasma methadone concentration, methadone 1 mg/kg PO 24 h after starting fluconazole 5 mg/kg PO q 24 h, 1 hr",33.7 ng/mL
same,concentration at 2 h,"[3]; Mean plasma methadone concentration, methadone 1 mg/kg PO 24 h after starting fluconazole 5 mg/kg PO q 24 h, 2 hr",39.9 ng/mL
same,concentration at 4 h,"[3]; Mean plasma methadone concentration, methadone 1 mg/kg PO 24 h after starting fluconazole 5 mg/kg PO q 24 h, 4 hr",31.4 ng/mL
same,concentration at 6 h,"[3]; Mean plasma methadone concentration, methadone 1 mg/kg PO 24 h after starting fluconazole 5 mg/kg PO q 24 h, 6 hr",24 ng/mL
same,concentration at 8 h,"[3]; Mean plasma methadone concentration, methadone 1 mg/kg PO 24 h after starting fluconazole 5 mg/kg PO q 24 h, 8 hr",18.4 ng/mL
same,concentration at 12 h,"[3]; Mean plasma methadone concentration, methadone 1 mg/kg PO 24 h after starting fluconazole 5 mg/kg PO q 24 h, 12 hr",15.3 ng/mL
same,concentration at 24 h,"[3]; Mean plasma methadone concentration, methadone 1 mg/kg PO 24 h after starting fluconazole 5 mg/kg PO q 24 h, 24 hr",5.5 ng/mL
same,Plasma methadone concentration (not exceeded in any of 6 dogs),[3]; methadone alone 1 mg/kg PO,≤ 2 ng/mL
same,"Plasma methadone concentration, individual dogs","[3]; methadone alone 1 mg/kg PO, 0 hr, Dog 1-6",<0.5 ng/mL
same,"Plasma methadone concentration, individual dogs","[3]; methadone alone 1 mg/kg PO, 0.333 hr, Dog 1-6",<0.5 ng/mL (3×) and 1.3 ng/mL (2×) and 1.9 ng/mL
same,"Plasma methadone concentration, individual dogs","[3]; methadone alone 1 mg/kg PO, 0.667 hr, Dog 1-6",1.9 ng/mL and 1.2 ng/mL and 0.7 ng/mL and 1.3 ng/mL and 1.5 ng/mL and 1.0 ng/mL
same,"Plasma methadone concentration, individual dogs","[3]; methadone alone 1 mg/kg PO, 1 hr, Dog 1-6",1.2 ng/mL (2×) and 1.5 ng/mL and 1.4 ng/mL and 1.1 ng/mL
same,"Plasma methadone concentration, individual dogs","[3]; methadone alone 1 mg/kg PO, 2 hr, Dog 1-6",<0.5 ng/mL (2×) and 0.8 ng/mL and 1.3 ng/mL and 0.6 ng/mL and 0.9 ng/mL
same,"Plasma methadone concentration, individual dogs","[3]; methadone alone 1 mg/kg PO, 4 hr, Dog 1-6",<0.5 ng/mL (2×) and 1.0 ng/mL and 0.5 ng/mL and 0.7 ng/mL
same,"Plasma methadone concentration, individual dogs","[3]; methadone alone 1 mg/kg PO, 6 hr, Dog 1-6",<0.5 ng/mL
same,"Plasma methadone concentration, individual dogs","[3]; methadone alone 1 mg/kg PO, 8 hr, Dog 1-6",<0.5 ng/mL
same,"Plasma methadone concentration, individual dogs","[3]; methadone alone 1 mg/kg PO, 12 hr, Dog 1-6",<0.5 ng/mL
same,"Plasma methadone concentration, individual dogs","[3]; methadone alone 1 mg/kg PO, 24 hr, Dog 1-6",<0.5 ng/mL
